According to PMC6197744, “Triazolo[4,5-d]pyrimidines as Validated General Control Nonderepressible 2 (GCN2) Protein Kinase Inhibitors Reduce Growth of Leukemia Cells” (Computational and Structural Biotechnology Journal, 2018):

Tests used:
MARK2 = biological target: T1, MARK2 (Homo sapiens, UniProt Q7KZI7); experiment: Broad kinase panel screen (split-luciferase); type: binding; conditions: MARK2, 0.5 uM
T1 construct: purchased Luceome Biotechnologies
Experimental: (§1) Compound 2 was screened against a standard panel of 50 protein kinases by Luceome Biotechnologies (Tucson, AZ). In brief, Compound 2 was dissolved and diluted in DMSO to a concentration of 12.5 μM from a 10 mM stock solution. As a control, compound 2 was evaluated for false positive against split-luciferase. For kinase assays, each C-terminal half of firefly luciferase linked kinase (Cfluc-Kinase) was translated along with the coiled coil Fos attached to the N-terminal fragment (Nfluc) (Fos-Nfluc) using rabbit reticulocyte lysate at 30 °C for 90 min. 24 µL aliquot of this lysate containing 1 µL of either DMSO or Compound 2 (at a final concentration 0.5 μM) was incubated for 30 minutes at room temperature followed by 1 hour incubation in the presence of a kinase specific probe. Finally, 80 µL of luciferin assay reagent was added and luminescence was immediately measured on a luminometer. Compound 2 was screened in duplicate against each kinase.
(§2) The % Inhibition and % Activity Remaining was calculated using the following equations: […]

MARK1 = biological target: T2, MARK1 (Homo sapiens, UniProt Q9P0L2); experiment: Broad kinase panel screen (split-luciferase); type: binding; conditions: MARK1, 0.5 uM
T2 construct: purchased Luceome Biotechnologies
Experimental: as §1, §2

AMPK-a1/AMPK = biological target: T3, AMPK-a1/AMPK (Homo sapiens, UniProt Q13131); experiment: Broad kinase panel screen (split-luciferase); type: binding
T3 construct: purchased Luceome Biotechnologies
Experimental: as §1, §2

PKG1/PRKG1 = biological target: T4, PKG1/PRKG1 (Homo sapiens, UniProt Q13976); experiment: Broad kinase panel screen (split-luciferase); type: binding; conditions: PKG1/PRKG1, 0.5 uM
T4 construct: purchased Luceome Biotechnologies
Experimental: as §1, §2

AURKB = biological target: T5, AURKB (Homo sapiens, UniProt Q96GD4); experiment: Broad kinase panel screen (split-luciferase); type: binding
T5 construct: purchased Luceome Biotechnologies
Experimental: as §1, §2

KIT = biological target: T6, KIT (Homo sapiens, UniProt P10721); experiment: Broad kinase panel screen (split-luciferase); type: binding
T6 construct: purchased Luceome Biotechnologies
Experimental: as §1, §2

HCK = biological target: T7, HCK (Homo sapiens, UniProt P08631); experiment: Broad kinase panel screen (split-luciferase); type: binding
T7 construct: purchased Luceome Biotechnologies
Experimental: as §1, §2

EPHB2 = biological target: T8, EPHB2 (Homo sapiens, UniProt P29323); experiment: Broad kinase panel screen (split-luciferase); type: binding; conditions: EPHB2, 0.5 uM
T8 construct: purchased Luceome Biotechnologies
Experimental: as §1, §2

MAPK14/p38a = biological target: T9, MAPK14/p38a (Homo sapiens, UniProt Q16539); experiment: Broad kinase panel screen (split-luciferase); type: binding
T9 construct: purchased Luceome Biotechnologies
Experimental: as §1, §2

ITK = biological target: T10, ITK (Homo sapiens, UniProt Q08881); experiment: Broad kinase panel screen (split-luciferase); type: binding
T10 construct: purchased Luceome Biotechnologies
Experimental: as §1, §2

SIK1/SNF1LK = biological target: T11, SIK1/SNF1LK (Homo sapiens, UniProt P57059); experiment: Broad kinase panel screen (split-luciferase); type: binding
T11 construct: purchased Luceome Biotechnologies
Experimental: as §1, §2

YANK2 = biological target: T12, YANK2 (Homo sapiens, UniProt Q9NY57); experiment: Broad kinase panel screen (split-luciferase); type: binding; conditions: YANK2, 0.5 uM
T12 construct: purchased Luceome Biotechnologies
Experimental: as §1, §2

ABL1 = biological target: T13, ABL1 (Homo sapiens, UniProt P00519); experiment: Broad kinase panel screen (split-luciferase); type: binding; conditions: ABL1, 0.5 uM
T13 construct: purchased Luceome Biotechnologies
Experimental: as §1, §2

AAK1 = biological target: T14, AAK1 (Homo sapiens, UniProt Q2M2I8); experiment: Broad kinase panel screen (split-luciferase); type: binding; conditions: AAK1, 0.5 uM
T14 construct: purchased Luceome Biotechnologies
Experimental: as §1, §2

PDK1/PDPK1 = biological target: T15, PDK1/PDPK1 (Homo sapiens, UniProt O15530); experiment: Broad kinase panel screen (split-luciferase); type: binding; conditions: PDK1/PDPK1, 0.5 uM
T15 construct: purchased Luceome Biotechnologies
Experimental: as §1, §2

AURKC = biological target: T16, AURKC (Homo sapiens, UniProt Q9UQB9); experiment: Broad kinase panel screen (split-luciferase); type: binding
T16 construct: purchased Luceome Biotechnologies
Experimental: as §1, §2

SRC = biological target: T17, SRC (Homo sapiens, UniProt P12931); experiment: Broad kinase panel screen (split-luciferase); type: binding
T17 construct: purchased Luceome Biotechnologies
Experimental: as §1, §2

DDR1 = biological target: T18, DDR1 (Homo sapiens, UniProt Q08345); experiment: Broad kinase panel screen (split-luciferase); type: binding; conditions: DDR1, 0.5 uM
T18 construct: purchased Luceome Biotechnologies
Experimental: as §1, §2

SIK2 = biological target: T19, SIK2 (Homo sapiens, UniProt Q9H0K1); experiment: Broad kinase panel screen (split-luciferase); type: binding; conditions: SIK2, 0.5 uM
T19 construct: purchased Luceome Biotechnologies
Experimental: as §1, §2

MUSK = biological target: T20, MUSK (Homo sapiens, UniProt O15146); experiment: Broad kinase panel screen (split-luciferase); type: binding
T20 construct: purchased Luceome Biotechnologies
Experimental: as §1, §2

IGF1R = biological target: T21, IGF1R (Homo sapiens, UniProt P08069); experiment: Broad kinase panel screen (split-luciferase); type: binding
T21 construct: purchased Luceome Biotechnologies
Experimental: as §1, §2

AKT1 = biological target: T22, AKT1 (Homo sapiens, UniProt P31749); experiment: Broad kinase panel screen (split-luciferase); type: binding; conditions: AKT1, 0.5 uM
T22 construct: purchased Luceome Biotechnologies
Experimental: as §1, §2

DAPK3 = biological target: T23, DAPK3 (Homo sapiens, UniProt O43293); experiment: Broad kinase panel screen (split-luciferase); type: binding; conditions: DAPK3, 0.5 uM
T23 construct: purchased Luceome Biotechnologies
Experimental: as §1, §2

CAMK2D = biological target: T24, CAMK2D (Homo sapiens, UniProt Q13557); experiment: Broad kinase panel screen (split-luciferase); type: binding
T24 construct: purchased Luceome Biotechnologies
Experimental: as §1, §2

PIM1 = biological target: T25, PIM1 (Homo sapiens, UniProt P11309); experiment: Broad kinase panel screen (split-luciferase); type: binding; conditions: PIM1, 0.5 uM
T25 construct: purchased Luceome Biotechnologies
Experimental: as §1, §2

PDGFRB = biological target: T26, PDGFRB (Homo sapiens, UniProt P09619); experiment: Broad kinase panel screen (split-luciferase); type: binding
T26 construct: purchased Luceome Biotechnologies
Experimental: as §1, §2

TNK1 = biological target: T27, TNK1 (Homo sapiens, UniProt Q13470); experiment: Broad kinase panel screen (split-luciferase); type: binding; conditions: TNK1, 0.5 uM
T27 construct: purchased Luceome Biotechnologies
Experimental: as §1, §2

human GCN2 = biological target: T28, human GCN2 (Homo sapiens, UniProt Q9P2K8); experiment: radiometric HotSpot kinase assay; type: biochemical; conditions: ATP at the ATP Km of GCN2; means of two independent experiments
T28 construct: purchased Reaction Biology Corporation (Malvern, PA)
Experimental: Compounds 1–9 were screened in a radiometric […] kinase assay against human GCN2 and other kinases involved in the UPR and ISR pathways (Table 1). […] The most soluble of the potent tool compounds (1 and 2) were selected for in vitro cell-based assays where the phosphorylation of eIF2α (p-eIF2α) was used as a readout for GCN2 inhibition.
In vitro compound profiling for recombinant GCN2, PERK, HRI, PKR, or IRE1 kinases were performed at Reaction Biology Corporation (Malvern, PA) using the HotSpot kinase assay. Briefly, all compounds provided for testing were dissolved in 10 mM DMSO stock solutions. Serial dilutions were conducted by epMotion 5070 in DMSO. Specific kinase/substrate mixtures and required cofactors were prepared in reaction buffer (20 mM Hepes (pH 7.5), 10 mM MgCl2, 1 mM EGTA, 0.02% Brij35, 0.02 mg/ml BSA, 0.1 mM Na3VO4, 2 mM DTT, 1% DMSO). Compounds were added to the kinase reaction mixture by Acoustic technology (Echo550; nanoliter range) and incubated for 20 min at room temperature. The kinase reaction was initiated by adding ^33P ATP to a final concentration of 10 μM for single point kinase activity reading or to the ATP Km of GCN2 for IC50 readings. The reaction was incubated or 2 h at room temperature and kinase activity was detected by filter-binding method. IC50 values and curves were generated with GraphPad Prism 7 (GraphPad software).

T8 sequence (P29323 19-1055): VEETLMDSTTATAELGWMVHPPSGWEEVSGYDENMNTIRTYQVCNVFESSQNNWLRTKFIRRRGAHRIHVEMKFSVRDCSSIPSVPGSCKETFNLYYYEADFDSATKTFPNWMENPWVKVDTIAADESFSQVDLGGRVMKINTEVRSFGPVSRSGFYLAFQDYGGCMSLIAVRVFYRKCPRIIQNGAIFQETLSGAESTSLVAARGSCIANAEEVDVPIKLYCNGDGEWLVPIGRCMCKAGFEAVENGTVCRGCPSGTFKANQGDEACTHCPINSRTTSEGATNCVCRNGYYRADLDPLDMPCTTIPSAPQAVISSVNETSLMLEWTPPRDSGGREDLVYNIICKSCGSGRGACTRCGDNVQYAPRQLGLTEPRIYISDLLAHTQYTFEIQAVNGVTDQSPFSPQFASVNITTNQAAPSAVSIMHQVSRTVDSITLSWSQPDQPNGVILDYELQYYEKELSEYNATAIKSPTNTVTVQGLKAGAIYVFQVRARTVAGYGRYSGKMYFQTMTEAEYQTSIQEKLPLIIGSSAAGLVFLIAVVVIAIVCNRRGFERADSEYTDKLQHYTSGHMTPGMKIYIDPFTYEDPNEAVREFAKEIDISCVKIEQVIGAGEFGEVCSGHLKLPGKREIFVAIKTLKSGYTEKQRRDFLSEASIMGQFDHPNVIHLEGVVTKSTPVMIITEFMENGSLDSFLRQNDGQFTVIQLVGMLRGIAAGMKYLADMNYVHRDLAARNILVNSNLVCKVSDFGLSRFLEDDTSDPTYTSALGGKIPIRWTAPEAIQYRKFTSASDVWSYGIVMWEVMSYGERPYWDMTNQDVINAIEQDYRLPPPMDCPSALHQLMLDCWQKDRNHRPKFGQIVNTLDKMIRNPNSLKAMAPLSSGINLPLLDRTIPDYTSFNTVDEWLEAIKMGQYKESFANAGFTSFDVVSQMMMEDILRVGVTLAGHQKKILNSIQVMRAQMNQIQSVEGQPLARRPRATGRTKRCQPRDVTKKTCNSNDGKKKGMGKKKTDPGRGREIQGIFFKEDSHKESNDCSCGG
T12 sequence (Q9NY57 whole entry): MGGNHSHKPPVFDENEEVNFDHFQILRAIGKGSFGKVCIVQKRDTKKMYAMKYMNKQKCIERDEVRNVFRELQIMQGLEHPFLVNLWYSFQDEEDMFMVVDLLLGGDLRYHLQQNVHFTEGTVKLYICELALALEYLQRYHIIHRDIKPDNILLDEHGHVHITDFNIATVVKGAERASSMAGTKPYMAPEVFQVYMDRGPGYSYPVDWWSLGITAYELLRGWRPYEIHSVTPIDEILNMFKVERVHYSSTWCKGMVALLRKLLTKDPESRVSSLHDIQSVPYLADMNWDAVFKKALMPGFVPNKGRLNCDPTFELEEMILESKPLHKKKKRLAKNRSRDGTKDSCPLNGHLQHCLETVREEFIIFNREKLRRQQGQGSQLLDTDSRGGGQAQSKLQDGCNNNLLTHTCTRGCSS
T26 sequence (P09619 33-1106): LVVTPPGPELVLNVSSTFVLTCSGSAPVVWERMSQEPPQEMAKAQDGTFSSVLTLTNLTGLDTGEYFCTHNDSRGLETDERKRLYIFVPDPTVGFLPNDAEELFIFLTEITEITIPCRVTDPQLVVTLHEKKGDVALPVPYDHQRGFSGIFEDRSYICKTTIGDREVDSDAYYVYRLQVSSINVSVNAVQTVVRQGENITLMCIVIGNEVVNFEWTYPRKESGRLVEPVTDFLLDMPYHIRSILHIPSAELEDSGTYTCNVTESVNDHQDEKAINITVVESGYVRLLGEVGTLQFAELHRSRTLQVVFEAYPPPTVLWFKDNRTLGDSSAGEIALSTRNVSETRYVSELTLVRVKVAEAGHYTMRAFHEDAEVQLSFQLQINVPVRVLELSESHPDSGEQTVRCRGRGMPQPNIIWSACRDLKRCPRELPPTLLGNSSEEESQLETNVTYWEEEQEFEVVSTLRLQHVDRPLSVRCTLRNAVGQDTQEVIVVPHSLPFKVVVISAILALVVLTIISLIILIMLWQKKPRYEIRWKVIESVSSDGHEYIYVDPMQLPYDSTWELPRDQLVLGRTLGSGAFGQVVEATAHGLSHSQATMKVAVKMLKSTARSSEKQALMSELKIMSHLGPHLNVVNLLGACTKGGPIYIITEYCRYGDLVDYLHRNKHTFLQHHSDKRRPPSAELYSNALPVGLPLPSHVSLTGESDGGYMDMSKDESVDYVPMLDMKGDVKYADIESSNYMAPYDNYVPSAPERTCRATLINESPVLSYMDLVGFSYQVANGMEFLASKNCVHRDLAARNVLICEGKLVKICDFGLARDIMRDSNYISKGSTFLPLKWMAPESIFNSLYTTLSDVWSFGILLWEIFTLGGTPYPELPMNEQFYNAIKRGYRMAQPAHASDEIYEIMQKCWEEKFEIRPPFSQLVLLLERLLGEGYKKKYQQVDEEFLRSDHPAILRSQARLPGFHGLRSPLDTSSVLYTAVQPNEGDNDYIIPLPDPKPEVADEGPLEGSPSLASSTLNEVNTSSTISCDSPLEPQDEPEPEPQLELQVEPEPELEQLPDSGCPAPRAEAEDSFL
T14 sequence (Q2M2I8 whole entry): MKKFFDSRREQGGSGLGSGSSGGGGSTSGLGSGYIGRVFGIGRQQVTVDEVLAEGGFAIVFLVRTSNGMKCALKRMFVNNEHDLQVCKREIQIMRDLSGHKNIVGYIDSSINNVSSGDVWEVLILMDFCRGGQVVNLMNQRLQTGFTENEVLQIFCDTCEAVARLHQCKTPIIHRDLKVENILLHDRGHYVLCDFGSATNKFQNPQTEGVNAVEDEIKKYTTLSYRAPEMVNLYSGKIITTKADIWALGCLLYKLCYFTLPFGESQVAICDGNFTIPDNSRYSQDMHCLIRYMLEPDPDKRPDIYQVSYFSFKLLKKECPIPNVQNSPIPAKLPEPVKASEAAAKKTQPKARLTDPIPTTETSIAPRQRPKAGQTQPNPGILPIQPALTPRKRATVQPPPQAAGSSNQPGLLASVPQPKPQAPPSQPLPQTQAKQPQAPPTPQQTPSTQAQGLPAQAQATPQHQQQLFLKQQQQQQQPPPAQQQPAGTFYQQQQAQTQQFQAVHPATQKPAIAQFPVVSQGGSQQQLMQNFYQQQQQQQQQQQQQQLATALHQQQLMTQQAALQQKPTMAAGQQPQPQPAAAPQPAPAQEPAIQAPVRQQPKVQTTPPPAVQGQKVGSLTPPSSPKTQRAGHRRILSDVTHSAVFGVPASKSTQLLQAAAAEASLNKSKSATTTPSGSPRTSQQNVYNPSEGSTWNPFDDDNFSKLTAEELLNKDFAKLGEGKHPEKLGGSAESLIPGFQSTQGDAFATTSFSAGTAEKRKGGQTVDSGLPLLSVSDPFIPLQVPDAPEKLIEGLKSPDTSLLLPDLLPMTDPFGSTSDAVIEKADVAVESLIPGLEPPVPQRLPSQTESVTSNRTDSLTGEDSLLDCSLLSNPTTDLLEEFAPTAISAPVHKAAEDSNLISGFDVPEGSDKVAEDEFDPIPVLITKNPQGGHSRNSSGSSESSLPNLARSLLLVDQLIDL
T22 sequence (P31749 whole entry): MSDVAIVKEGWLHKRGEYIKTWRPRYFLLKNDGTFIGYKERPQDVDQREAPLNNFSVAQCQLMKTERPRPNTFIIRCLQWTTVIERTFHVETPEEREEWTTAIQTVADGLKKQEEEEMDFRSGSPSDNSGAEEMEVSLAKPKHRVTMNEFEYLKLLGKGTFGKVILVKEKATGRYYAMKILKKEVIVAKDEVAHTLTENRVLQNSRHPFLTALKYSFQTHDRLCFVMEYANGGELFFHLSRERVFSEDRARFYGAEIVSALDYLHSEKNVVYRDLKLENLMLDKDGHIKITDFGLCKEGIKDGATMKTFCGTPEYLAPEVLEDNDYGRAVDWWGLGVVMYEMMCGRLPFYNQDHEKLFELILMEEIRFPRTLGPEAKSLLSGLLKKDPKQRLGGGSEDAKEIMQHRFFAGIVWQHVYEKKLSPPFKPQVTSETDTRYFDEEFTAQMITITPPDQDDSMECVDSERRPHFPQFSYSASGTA
T15 sequence (O15530 whole entry): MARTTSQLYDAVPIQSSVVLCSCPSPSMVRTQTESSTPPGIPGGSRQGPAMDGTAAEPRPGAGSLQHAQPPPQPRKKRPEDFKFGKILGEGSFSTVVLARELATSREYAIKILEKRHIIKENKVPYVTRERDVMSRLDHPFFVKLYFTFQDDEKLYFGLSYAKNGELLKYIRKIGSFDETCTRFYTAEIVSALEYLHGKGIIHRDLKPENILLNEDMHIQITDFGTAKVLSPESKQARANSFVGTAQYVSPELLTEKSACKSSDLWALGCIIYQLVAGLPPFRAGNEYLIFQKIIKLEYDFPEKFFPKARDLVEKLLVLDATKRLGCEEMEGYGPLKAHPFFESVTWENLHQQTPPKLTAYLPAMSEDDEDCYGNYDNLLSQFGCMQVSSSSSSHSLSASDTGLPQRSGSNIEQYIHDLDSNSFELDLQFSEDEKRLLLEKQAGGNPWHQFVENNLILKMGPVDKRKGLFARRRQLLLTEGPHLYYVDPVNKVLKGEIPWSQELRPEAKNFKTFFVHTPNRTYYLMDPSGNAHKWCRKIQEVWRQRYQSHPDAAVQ
T9 sequence (Q16539 whole entry): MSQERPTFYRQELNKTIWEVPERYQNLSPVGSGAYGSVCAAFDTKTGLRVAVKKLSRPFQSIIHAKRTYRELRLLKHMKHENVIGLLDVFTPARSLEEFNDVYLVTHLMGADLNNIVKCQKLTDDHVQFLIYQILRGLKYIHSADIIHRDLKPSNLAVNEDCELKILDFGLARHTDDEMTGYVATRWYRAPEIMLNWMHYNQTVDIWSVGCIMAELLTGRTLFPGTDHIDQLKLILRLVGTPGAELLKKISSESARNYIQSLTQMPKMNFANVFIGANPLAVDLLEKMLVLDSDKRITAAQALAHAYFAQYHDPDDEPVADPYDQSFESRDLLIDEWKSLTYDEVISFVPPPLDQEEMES

CCOc1ccc(-n2nnc3cnc(Nc4cnn(CC)c4)nc32)cc1 [Compound 2, 3-(4-Ethoxyphenyl)-N-(1-ethyl-1H-pyrazol-4-yl)-3H-[1,2,3]triazolo[4,5-d]pyrimidin-5-amine]
remaining activity at 0.5 µM (MARK2): 99.3%
remaining activity at 0.5 µM (MARK1): 100%
remaining activity at 0.5 µM (AMPK-a1/AMPK): 100%
remaining activity at 0.5 µM (PKG1/PRKG1): 96%
remaining activity at 0.5 µM (AURKB): 94.7%
remaining activity at 0.5 µM (KIT): 88.8%
remaining activity at 0.5 µM (HCK): 96%
remaining activity at 0.5 µM (EPHB2): 97.7%
remaining activity at 0.5 µM (MAPK14/p38a): 100%
remaining activity at 0.5 µM (ITK): 89.9%
remaining activity at 0.5 µM (SIK1/SNF1LK): 99.9%
remaining activity at 0.5 µM (YANK2): 100%
remaining activity at 0.5 µM (ABL1): 88.9%
remaining activity at 0.5 µM (AAK1): 73.5%
remaining activity at 0.5 µM (PDK1/PDPK1): 96.2%
remaining activity at 0.5 µM (AURKC): 98.7%
remaining activity at 0.5 µM (SRC): 99.1%
remaining activity at 0.5 µM (DDR1): 93.1%
remaining activity at 0.5 µM (SIK2): 100%
remaining activity at 0.5 µM (MUSK): 100%
remaining activity at 0.5 µM (IGF1R): 100%
remaining activity at 0.5 µM (AKT1): 98.4%
remaining activity at 0.5 µM (DAPK3): 97.6%
remaining activity at 0.5 µM (CAMK2D): 89.9%
remaining activity at 0.5 µM (PIM1): 93.4%
remaining activity at 0.5 µM (PDGFRB): 84.4%
remaining activity at 0.5 µM (TNK1): 100%
IC50 (human GCN2): 0.0186 µM
